Earlier results on one compound are cited in US20190350829A1, “AN ANTIMICROBIAL COMPOSITION” (Conopco, Inc., d/b/a UNILEVER, priority 2016, published 2019).

The pKa is the pH at which an ionisable group is half protonated.

Read-outs that look alike come from different tables or passages of the source.

For the compound `CCCCC(C)CCC(=O)O` (centres unmarked) [4-methyl octanoic acid], the pKa is listed as 4.89. Besides, the pKa (listed as methyl caprylic acid) is recorded as 4.93.
